Here are results for 37 compounds from patent US12568972B2, “Pyridazinol compounds and derivatives, preparation methods, herbicidal compositions and applications thereof” (Qingdao Kingagroot Chemical Compound Co., Ltd., priority 2018, dated 2026).

Common to all, as to format: in vivo
One assay deals with weeds. In words: Control effect and synergistic effect of the mixture of (i) and (ii), postemergence (Gowing method). From the text:
Wherein, in the formula, X represented the fresh weight inhibition rate of the active ingredient A in a dosage of P, and Y represented the fresh weight inhibition rate of the active ingredient B in a dosage of Q. The statistic results are shown in Table 6.

Another assay concerns Veronica polita. Put plainly: Post-emergence test, weed control effect. To be noted: Dose 3000 g/ha, after 3 weeks. In outline: (§1)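 Weeds grown from seed in soil-filled pots in a greenhouse were sprayed at the 2-3 leaf stage, 2-3 weeks after sowing, with compound in acetone/Tween-80/water plus 80% vegetable oil methyl ester synergist at 1500 g/ha. Fresh-weight inhibition was scored on a 0-10 scale after 3 weeks.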

For another assay, the system named is Chenopodiaceae. In words: Post-emergence test, weed control effect. To be noted: Dose 3000 g/ha, after 3 weeks. In outline: as §1
A further assay relates to Rorippa indica. In words: Post-emergence test, weed control effect. To be noted: Dose 3000 g/ha, after 3 weeks. In outline:
as §1

The test system of a further assay is Amaranthus retroflexus. Put plainly: Post-emergence test, weed control effect. Particulars: Dose 3000 g/ha, after 3 weeks. In outline: as §1
[1] abbreviates: Sisymbrium sophia, 200 g a.i./ha, postemergence, 20 days after treatment.
The mark [2] stands for this setting: Abutilon theophrasti, 15 g a.i./ha, postemergence, 20 days after treatment.
[3] abbreviates: Abutilon theophrasti, 2 g a.i./ha, postemergence, 20 days after treatment.
Where [4] appears, read: post-emergence, 480 h, Abutilon theophrasti, 30 g a.i./ha, postemergence, 20 days after treatment, read-out: Inhibitory effect of component (ii) when applied alone at same dose.
Where [5] appears, read: Abutilon theophrasti, 50 g a.i./ha, postemergence, 20 days after treatment.

Where two headings read alike, the source gives them in different places.

Regarding `CC(C)CCCCCOC(=O)COc1ccc(Cl)cc1Cl` [2,4-D iso-octyl ester], in the assay on weeds (Sisymbrium sophia, 50 g a.i./ha, postemergence, 20 days after treatment), the “Inhibitory effect of component (ii) when applied alone at same dose” value (shortened to “Inhibitory effect of component (ii)”) is reported as 40%.
`O=C(O)CCCOc1ccc(Cl)cc1Cl` [2,4-DB]: in the assay with weeds (setting [1]), the “Inhibitory effect of component (ii)” value was 50%.
Consider `Cc1cc(Cl)ccc1OC(C)C(=O)O` (stereo not shown) [2-methyl 4-chlorophenoxypropionic acid], for which the “Inhibitory effect of component (ii)” value with weeds (Sisymbrium sophia, 100 g a.i./ha, postemergence, 20 days after treatment) came to 30%.
For `CCC(Oc1ccc(F)c(C(F)(F)F)c1)C(=O)NCc1ccccc1` (stereo not shown) [Beflubutamid], the “Inhibitory effect of component (ii)” value with weeds (Abutilon theophrasti, 200 g a.i./ha, postemergence, 20 days after treatment) came to 40%.
On to `CS(=O)(=O)c1ccc(C(=O)C2=C(Sc3ccccc3)C3CCC(C3)C2=O)c(Cl)c1` (stereo not shown) [Benzobicyclon], for which the “Inhibitory effect of component (ii)” value with weeds (Abutilon theophrasti, 150 g a.i./ha, postemergence, 20 days after treatment) is on record as 50%.
With `Cc1ccc(C(=O)COc2c(C(=O)c3ccc(Cl)c(C)c3Cl)c(C)nn2C)cc1` [Benzofenap], the pest or weed control at 150 g/ha with weeds (post-emergence, 480 h, Abutilon theophrasti, 150 g a.i./ha, postemergence, 20 days after treatment, read-out: Inhibitory effect of component (ii) when applied alone at same dose) came out at 40%.
Consider `CCn1ncc(C(=O)c2ccc(S(C)(=O)=O)c(COCC(F)(F)F)c2Cl)c1OC(=O)c1cn(C)nc1C` [Benzuofucaotong], for which the “Inhibitory effect of component (ii)” value in the assay with weeds (setting [2]) turned out to be 40%.
Turning to `O=C(O)c1nc(Cl)ccc1Cl` [Clopyralid], in the assay with weeds (post-emergence, 480 h, Galinsoga parviflora, 50 g a.i./ha, postemergence, 20 days after treatment, read-out: Inhibitory effect of component (ii) when applied alone at same dose), the pest or weed control at 50 g/ha was 40%.
In the case of `Oc1cc(C(F)(F)F)nnc1-c1cnc(F)cc1Cl` [Compound 1001], the “weed control effect (activity level), Veronica polita” value (shortened to “weed control effect … Veronica polita”) with Veronica polita is given as 10. Besides, the “weed control effect (activity level), Chenopodiaceae” value (from here on “weed control effect … Chenopodiaceae”) in the assay on Chenopodiaceae is reported as 10. Besides, in the assay on Rorippa indica, the “weed control effect (activity level), Rorippa indica” value (“weed control effect … Rorippa indica” below) is 10. The “weed control effect (activity level), Amaranthus retroflexus” value in the assay with Amaranthus retroflexus was 10.
On to `Oc1cc(C(F)(F)F)nnc1-c1cncc(F)c1Cl` [Compound 1002], for which the “weed control effect … Veronica polita” value in the assay with Veronica polita is 10. The “weed control effect … Chenopodiaceae” value with Chenopodiaceae is recorded as 10. Further, the “weed control effect … Rorippa indica” value in the assay on Rorippa indica is recorded as 10. Also, the “weed control effect (activity level), Amaranthus retroflexus” value with Amaranthus retroflexus was 10.
With `Oc1cc(C(F)(F)F)nnc1-c1ccc(F)nc1Cl` [Compound 1003], the “weed control effect … Veronica polita” value in the assay with Veronica polita turned out to be 10. In the assay with Chenopodiaceae, the “weed control effect … Chenopodiaceae” value is recorded as 10. In the assay with Rorippa indica, the “weed control effect … Rorippa indica” value came out at 10. Also, the “weed control effect (activity level), Amaranthus retroflexus” value in the assay on Amaranthus retroflexus was 10.
Take `Oc1cc(C(F)(F)F)nnc1-c1cc(F)cnc1Cl` [Compound 1004]: the “weed control effect … Veronica polita” value in the assay with Veronica polita was found to be 10. In addition, the “weed control effect … Chenopodiaceae” value in the assay with Chenopodiaceae was found to be 10. Also, in the assay with Rorippa indica, the “weed control effect … Rorippa indica” value is 10. For the same compound, the “weed control effect (activity level), Amaranthus retroflexus” value in the assay with Amaranthus retroflexus turned out to be 10.
For the compound `Oc1cc(C(F)(F)F)nnc1-c1c(F)ccnc1Cl` [Compound 1005], the “weed control effect … Veronica polita” value in the assay with Veronica polita is 10. Besides, the “weed control effect … Chenopodiaceae” value with Chenopodiaceae is reported as 10. For the same compound, the “weed control effect … Rorippa indica” value in the assay with Rorippa indica amounted to 10. Moreover, the “weed control effect (activity level), Amaranthus retroflexus” value in the assay on Amaranthus retroflexus stood at 10.
`Oc1cc(C(F)(F)F)nnc1-c1cnc(Cl)c(F)c1` [Compound 1006]: the “weed control effect … Veronica polita” value in the assay on Veronica polita came out at 10. Also, in the assay on Chenopodiaceae, the “weed control effect … Chenopodiaceae” value is reported as 10. Further, the “weed control effect … Rorippa indica” value in the assay with Rorippa indica amounted to 10. In addition, the “weed control effect (activity level), Amaranthus retroflexus” value with Amaranthus retroflexus came out at 10.
Consider `Oc1cc(C(F)(F)F)nnc1-c1cnc(Cl)cc1F` [Compound 1007], for which the “weed control effect … Veronica polita” value in the assay on Veronica polita was 10. Besides, the “weed control effect … Chenopodiaceae” value with Chenopodiaceae is 10. Further, the “weed control effect … Rorippa indica” value with Rorippa indica is on record as 10. Also, the “weed control effect (activity level), Amaranthus retroflexus” value with Amaranthus retroflexus is reported as 10.
On to `Oc1cc(C(F)(F)F)nnc1-c1cncc(Cl)c1F` [Compound 1008], for which, in the assay on Veronica polita, the “weed control effect … Veronica polita” value was determined as 10. Besides, the “weed control effect … Chenopodiaceae” value in the assay on Chenopodiaceae is 10. Further, the “weed control effect … Rorippa indica” value in the assay with Rorippa indica came to 10. For the same compound, the “weed control effect (activity level), Amaranthus retroflexus” value in the assay on Amaranthus retroflexus was 10.
For the compound `Cc1cc(Cl)ncc1-c1nnc(C(F)(F)F)cc1O` [Compound 1018], the “weed control effect … Veronica polita” value in the assay with Veronica polita is on record as 10. Also, the “weed control effect … Chenopodiaceae” value in the assay with Chenopodiaceae is listed as 10. Further, the “weed control effect … Rorippa indica” value in the assay with Rorippa indica was found to be 10. Besides, in the assay on Amaranthus retroflexus, the “weed control effect (activity level), Amaranthus retroflexus” value is recorded as 10.
Consider `Oc1cc(CF)nnc1-c1cccnc1F` [Compound 1076], for which the “weed control effect … Veronica polita” value in the assay on Veronica polita is recorded as 10. Further, the “weed control effect … Chenopodiaceae” value in the assay with Chenopodiaceae amounted to 10. Further, in the assay on Rorippa indica, the “weed control effect … Rorippa indica” value was found to be 10. For the same compound, the “weed control effect (activity level), Amaranthus retroflexus” value with Amaranthus retroflexus stood at 10.
Regarding `Oc1cc(C(F)(F)F)nnc1-c1ccc2c(c1)OC(F)(F)O2` [Compound 1286], the “weed control effect … Veronica polita” value in the assay on Veronica polita was determined as 10. In the assay on Chenopodiaceae, the “weed control effect … Chenopodiaceae” value worked out at 10. The “weed control effect … Rorippa indica” value in the assay with Rorippa indica is 10. For the same compound, the “weed control effect (activity level), Amaranthus retroflexus” value in the assay with Amaranthus retroflexus is given as 10.
In the case of `CC(C)=Cc1nnc(C(F)(F)F)cc1O` [Compound 1523], in the assay on Veronica polita, the “weed control effect … Veronica polita” value came out at 10. Further, the “weed control effect … Chenopodiaceae” value in the assay with Chenopodiaceae amounted to 10. In addition, the “weed control effect … Rorippa indica” value in the assay with Rorippa indica was determined as 10. Also, the “weed control effect (activity level), Amaranthus retroflexus” value with Amaranthus retroflexus is recorded as 10.
`COc1c(Cl)ccc(Cl)c1C(=O)O` [Dicamba]: the pest or weed control at 10 g/ha in the assay on weeds (Descurainia sophia, post-emergence, 480 h, Sisymbrium sophia, 10 g a.i./ha, postemergence, 20 days after treatment, read-out: Inhibitory effect of component (ii) when applied alone at same dose) stood at 30%.
Consider `CC(Oc1ccc(Cl)cc1Cl)C(=O)O` (stereo not shown) [Dichlorprop], for which the pest or weed control at 100 g/ha in the assay with weeds (Descurainia sophia, post-emergence, 480 h, Sisymbrium sophia, 100 g a.i./ha, postemergence, 20 days after treatment, read-out: Inhibitory effect of component (ii) when applied alone at same dose) was determined as 40%.
As to `O=C(Nc1ccc(F)cc1F)c1cccnc1Oc1cccc(C(F)(F)F)c1` [Diflufenican], the pest or weed control at 100 g/ha with weeds (post-emergence, 480 h, Veronica polita, 100 g a.i./ha, postemergence, 20 days after treatment, read-out: Inhibitory effect of component (ii) when applied alone at same dose) was 45%.
Take `COc1c(Cl)ccc(-c2nc(C(=O)OCc3ccccc3)c(Cl)c(N)c2F)c1F` [Florpyrauxifen-benzyl]: in the assay on weeds (setting [3]), the “Inhibitory effect of component (ii)” value was 45%.
For the compound `O=C1C(Cl)C(CCl)CN1c1cccc(C(F)(F)F)c1` (stereo not shown) [Flurochloridone], the pest or weed control at 100 g/ha in the assay on weeds (post-emergence, 480 h, Galium aparine, 100 g a.i./ha, postemergence, 20 days after treatment, read-out: Inhibitory effect of component (ii) when applied alone at same dose) came out at 40%.
Turning to `Nc1c(Cl)c(F)nc(OCC(=O)O)c1Cl` [Fluroxypyr], the pest or weed control at 30 g/ha in the assay on weeds (post-emergence, 480 h, Galium aparine, 30 g a.i./ha, postemergence, 20 days after treatment, read-out: Inhibitory effect of component (ii) when applied alone at same dose) was found to be 40%.
In the case of `CNC1=C(c2cccc(C(F)(F)F)c2)C(=O)C(c2ccccc2)O1` (stereo not shown) [Flurtamone], the pest or weed control at 100 g/ha in the assay with weeds (Galium aparine, post-emergence, 480 h, read-out: Inhibitory effect of component (ii) when applied alone at same dose) is 35%.
As for `COC(=O)c1nc(-c2ccc(Cl)c(OC)c2F)cc(N)c1Cl` [Halauxifen-methyl], the “Inhibitory effect of component (ii)” value in the assay on weeds (setting [3]) was 40%.
For the compound `Cn1[nH]c(C2CC2)c(C(=O)c2ccc(C(F)(F)F)c(N3CCCCC3=O)c2Cl)c1=O` [Huanbifucaotong], the “Inhibitory effect of component (ii)” value in the assay on weeds (Abutilon theophrasti, 30 g a.i./ha, postemergence, 20 days after treatment) came out at 30%.
Take `CS(=O)(=O)c1cc(C(F)(F)F)ccc1C(=O)c1cnoc1C1CC1` [Isoxaflutole]: in the assay with weeds (setting [4]), the pest or weed control at 30 g/ha worked out at 30%.
On to `CS(=O)(=O)c1ccc(C(=O)C2C(=O)CCCC2=O)c(Cl)c1OCCC1OCCO1` [Lancotrione], for which, in the assay with weeds (setting [5]), the “Inhibitory effect of component (ii)” value turned out to be 40%.
For the compound `Cc1cc(Cl)ccc1OCCCC(=O)O` [MCPB], the “Inhibitory effect of component (ii)” value in the assay on weeds (setting [1]) is 40%.
As to `CS(=O)(=O)c1ccc(C(=O)C2C(=O)CCCC2=O)c([N+](=O)[O-])c1` [Mesotrione], the pest or weed control at 30 g/ha with weeds (setting [4]) is 40%.
Consider `CNc1cnn(-c2cccc(C(F)(F)F)c2)c(=O)c1Cl` [Norflurazon], for which the pest or weed control at 300 g/ha with weeds (post-emergence, 480 h, Abutilon theophrasti, 300 g a.i./ha, postemergence, 20 days after treatment, read-out: Inhibitory effect of component (ii) when applied alone at same dose) amounted to 50%.
For `Nc1c(Cl)c(Cl)nc(C(=O)O)c1Cl` [Picloram], the pest or weed control at 50 g/ha in the assay with weeds (post-emergence, 480 h, Abutilon theophrasti, 50 g a.i./ha, postemergence, 20 days after treatment, read-out: Inhibitory effect of component (ii) when applied alone at same dose) is 40%.
Consider `O=C(Nc1ccc(F)cc1)c1cccc(Oc2cccc(C(F)(F)F)c2)n1` [Picolinafen], for which, in the assay on weeds (setting [5]), the “Inhibitory effect of component (ii)” value stood at 30%.
Turning to `Cc1nn(C)c(O)c1C(=O)c1ccc(C(F)(F)F)cc1S(C)(=O)=O` [Pyrasulfotole], the “Inhibitory effect of component (ii)” value with weeds (setting [2]) was determined as 50%.
